From ChEMBL document CHEMBL3886569, “Substituted isoquinolines as CRTH2 receptor modulators” (2016)

Target: T1, Prostaglandin D2 receptor 2 (Homo sapiens, UniProt Q9Y5Y4)
T1 sequence (Q9Y5Y4 whole entry): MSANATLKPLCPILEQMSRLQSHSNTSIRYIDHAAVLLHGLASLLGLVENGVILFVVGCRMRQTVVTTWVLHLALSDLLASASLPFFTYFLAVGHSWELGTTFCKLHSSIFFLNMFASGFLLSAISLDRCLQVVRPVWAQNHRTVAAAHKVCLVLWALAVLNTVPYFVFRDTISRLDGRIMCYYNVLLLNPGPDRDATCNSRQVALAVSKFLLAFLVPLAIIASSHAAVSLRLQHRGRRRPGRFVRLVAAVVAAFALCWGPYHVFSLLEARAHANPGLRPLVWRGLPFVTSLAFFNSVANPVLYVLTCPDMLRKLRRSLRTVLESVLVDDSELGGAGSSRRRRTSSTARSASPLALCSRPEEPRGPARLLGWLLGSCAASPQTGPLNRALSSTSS
Assay: Radioligand Binding Assay: Radioligand binding was performed using filtration or scintillation proximity assay (SPA) technology. SPA assays were done at room temperature in 10 mM HEPES pH 7.4, 1 mM EDTA containing 2 mM MnCl2 and 16 nM [3H]-PGD2 (PerkinElmer, Waltham, Mass.) (164 Ci mmol-1), in a final volume of 0.05 mL. Competing ligands were diluted in dimethylsulfoxide and added using very low volumes (500 nL). The reaction was initiated by the addition of a mixture of 3.52 ug of membrane protein prepared from a human embryonic kidney (HEK)-hCRTH2 cell line adhered to 140 ug of wheatgerm agglutinin SPA beads (PerkinElmer). Total and non-specific binding were determined in the absence and the presence of a CRTH2 antagonist, respectively. The reaction was routinely conducted for 60 minutes at room temperature followed by centrifugation for 5 minutes at 1000 RPM. The radioactivity was measured with a TopCountNXT (PerkinElmer). Filtration binding assays were done in a similar way with minor differences. The assay volume was 0.20 mL and competing ligands in dimethylsulfoxide were added in 2 uL. [3H]-PGD2 was used at 0.6 nM, and reactions were initiated by the addition of 10 ug of membrane protein. Reactions were terminated by filtration through GF/C filter plates (PerkinElmer) presoaked in 10 mM HEPES. After washing with buffer, plates were dried in a 50° C. oven for 1 h, scintillation cocktail was added and radioactivity was measured. Results determined using the SPA-based assay were similar to those from the filtration binding assay.

Going from O=C(O)CCCCc1cc2cc(-c3noc(C4Cc5ccccc5C4)n3)ccc2c(=O)n1-c1ccc(F)cc1 to O=C(O)CCCCc1cc2cc(-c3noc(Cc4ccc(F)cc4)n3)ccc2c(=O)n1-c1ccc(F)cc1, the Ki falls from 0.0215 µM to 0.00779 µM (2.8-fold).

Going from O=C(CCCCc1cc2cc(C(=O)N[C@@H]3CCCc4cc(F)ccc43)ccc2c(=O)n1-c1ccc(F)cc1)NS(=O)(=O)C1CC1 to CC1(c2nc3ccc(F)cc3o2)CC(c2ccc3c(=O)n(-c4ccc(F)cc4)c(CCCCC(=O)O)cc3c2)=NO1 (stereo not given), the Ki rises from 0.0109 µM to 0.0254 µM (2.3-fold).

Work on CC1(c2nc3ccc(F)cc3o2)CC(c2ccc3c(=O)n(-c4ccc(F)cc4)c(CCCCC(=O)O)c(Cl)c3c2)=NO1 (stereo not given) yielded a Ki of 0.0791 µM.
